This passage reports inhibition results from ChEMBL document CHEMBL4665648, “Potent and selective inhibitors of receptor-interacting protein kinase 1 that lack an aromatic back pocket group” (Bioorg Med Chem Lett, 2019).

For assay [1], the target named is Ribosomal protein S6 kinase beta-1 (Homo sapiens) (UniProt P23443). The assay is described as follows: Inhibition of recombinant human GST-tagged p70S6K (1 to 421 residues) expressed in baculovirus expression system using Ser/Thr 07 as substrate at 10 uM incubated for 60 mins by Z'-Lyte assay relative to control.
The target of assay [2] is Serine/threonine-protein kinase Nek1 (Homo sapiens) (UniProt Q96PY6). The assay is described as follows: Inhibition of recombinant human GST-tagged NEK1 (1 to 505 residues) expressed in baculovirus expression system using Ser/Thr 07 as substrate at 10 uM incubated for 60 mins by Z'-lyte assay relative to control.
Serine/threonine-protein kinase Nek1 (Homo sapiens), sequence (Q96PY6 whole entry, the tested form may be a part): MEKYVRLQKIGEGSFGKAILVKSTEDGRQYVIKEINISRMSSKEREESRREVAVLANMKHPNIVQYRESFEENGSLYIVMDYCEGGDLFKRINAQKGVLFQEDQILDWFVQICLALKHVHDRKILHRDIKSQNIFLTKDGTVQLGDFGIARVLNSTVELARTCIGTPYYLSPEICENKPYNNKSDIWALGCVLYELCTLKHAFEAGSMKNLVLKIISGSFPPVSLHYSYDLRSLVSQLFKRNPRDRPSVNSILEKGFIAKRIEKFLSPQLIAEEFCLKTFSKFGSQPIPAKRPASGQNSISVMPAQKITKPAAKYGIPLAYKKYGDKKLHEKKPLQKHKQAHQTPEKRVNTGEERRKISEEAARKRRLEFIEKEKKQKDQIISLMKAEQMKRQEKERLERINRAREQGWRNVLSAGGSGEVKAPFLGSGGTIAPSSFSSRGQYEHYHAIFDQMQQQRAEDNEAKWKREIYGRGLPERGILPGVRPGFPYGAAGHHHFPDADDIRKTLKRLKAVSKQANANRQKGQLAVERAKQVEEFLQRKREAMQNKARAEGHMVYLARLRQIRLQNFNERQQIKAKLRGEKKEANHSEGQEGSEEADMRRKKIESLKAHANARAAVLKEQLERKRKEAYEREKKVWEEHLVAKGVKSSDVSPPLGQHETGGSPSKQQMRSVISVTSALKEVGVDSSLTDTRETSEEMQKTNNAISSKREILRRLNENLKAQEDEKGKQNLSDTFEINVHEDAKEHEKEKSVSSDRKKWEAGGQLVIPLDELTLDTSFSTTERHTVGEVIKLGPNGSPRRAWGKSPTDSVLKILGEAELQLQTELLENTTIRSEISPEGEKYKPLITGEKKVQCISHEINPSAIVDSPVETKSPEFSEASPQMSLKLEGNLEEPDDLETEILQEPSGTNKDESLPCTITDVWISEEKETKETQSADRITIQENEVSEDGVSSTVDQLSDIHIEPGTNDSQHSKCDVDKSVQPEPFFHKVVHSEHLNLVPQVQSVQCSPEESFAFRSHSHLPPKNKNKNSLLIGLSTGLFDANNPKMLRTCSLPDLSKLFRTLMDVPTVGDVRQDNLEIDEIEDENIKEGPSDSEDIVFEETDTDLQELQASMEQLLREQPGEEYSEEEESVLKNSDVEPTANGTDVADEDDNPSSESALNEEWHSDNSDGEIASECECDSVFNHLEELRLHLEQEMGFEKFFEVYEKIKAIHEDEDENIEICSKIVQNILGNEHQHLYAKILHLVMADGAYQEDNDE
The target in assay [3] is Proto-oncogene tyrosine-protein kinase Src (Homo sapiens) (UniProt P12931). The assay is described as follows: Inhibition of recombinant human C-terminal His-tagged full length SRC expressed in baculovirus expression system using Tyr 02 as substrate at 10 uM incubated for 60 mins by Z'-Lyte assay relative to control.
Assay [4] addresses STE20-like serine/threonine-protein kinase (Homo sapiens) (UniProt Q9H2G2). The assay is described as follows: Inhibition of tracer 236 binding to recombinant human GST-tagged full length SLK expressed in baculovirus expression system at 10 uM incubated for 60 mins by Lanthascreen assay relative to control. In general terms: TR-FRET usually uses a lanthanide donor and a delayed reading to cut background.

Assay [5] addresses ALK tyrosine kinase receptor (Homo sapiens) (UniProt Q9UM73). The assay is described as follows: Inhibition of recombinant human GST-tagged […] (1058 to 1620 residues) expressed in baculovirus expression system using Tyr 01 as substrate at 10 uM incubated for 60 mins by Z'-Lyte assay relative to control.
Assay [6] concerns the target Receptor tyrosine-protein kinase erbB-4 (Homo sapiens) (UniProt Q15303). In words: Inhibition of recombinant human N-terminal GST-tagged ERBB4 (708 to 993 residues) expressed in baculovirus expression system using Tyr 01 as substrate at 10 uM incubated for 60 mins by Z'-Lyte assay relative to control.
Assay [7] has as its target Muscle, skeletal receptor tyrosine-protein kinase (Homo sapiens) (UniProt O15146). The assay is described as follows: Inhibition of recombinant human GST-tagged MUSK (519 to 869 residues) expressed in baculovirus expression system using Tyr 04 as substrate at 10 uM incubated for 60 mins by Z'-lyte assay relative to control.
Assay [8] concerns the target Serine/threonine-protein kinase TAO2 (Homo sapiens) (UniProt Q9UL54). The assay is described as follows: Inhibition of recombinant human GST-tagged TAO2 (1 to 314 residues) expressed in baculovirus expression system using Ser/Thr 07 as substrate at 10 uM incubated for 60 mins by Z'-Lyte assay relative to control.
Assay [9] addresses Maternal embryonic leucine zipper kinase (Homo sapiens) (UniProt Q14680). In words: Inhibition of recombinant human GST-tagged MELK (1 to 340 residues) expressed in baculovirus expression system using Ser/Thr 17 as substrate at 10 uM incubated for 60 mins by Z'-lyte assay relative to control.
The target in assay [10] is BDNF/NT-3 growth factors receptor (Homo sapiens) (UniProt Q16620). In words: Inhibition of recombinant human His-tagged TRKB (526 to 838 residues) expressed in baculovirus expression system using Tyr 01 as substrate at 10 uM incubated for 60 mins by Z'-Lyte assay relative to control.
Assay [11] deals with Calcium/calmodulin-dependent protein kinase type IV (Homo sapiens) (UniProt Q16566). In words: Inhibition of recombinant human GST-tagged full length CAMK4 expressed in Escherichia coli expression system using Ser/Thr 13 as substrate at 10 uM incubated for 60 mins by Z'-Lyte assay relative to control.
Calcium/calmodulin-dependent protein kinase type IV (Homo sapiens), sequence (Q16566 whole entry): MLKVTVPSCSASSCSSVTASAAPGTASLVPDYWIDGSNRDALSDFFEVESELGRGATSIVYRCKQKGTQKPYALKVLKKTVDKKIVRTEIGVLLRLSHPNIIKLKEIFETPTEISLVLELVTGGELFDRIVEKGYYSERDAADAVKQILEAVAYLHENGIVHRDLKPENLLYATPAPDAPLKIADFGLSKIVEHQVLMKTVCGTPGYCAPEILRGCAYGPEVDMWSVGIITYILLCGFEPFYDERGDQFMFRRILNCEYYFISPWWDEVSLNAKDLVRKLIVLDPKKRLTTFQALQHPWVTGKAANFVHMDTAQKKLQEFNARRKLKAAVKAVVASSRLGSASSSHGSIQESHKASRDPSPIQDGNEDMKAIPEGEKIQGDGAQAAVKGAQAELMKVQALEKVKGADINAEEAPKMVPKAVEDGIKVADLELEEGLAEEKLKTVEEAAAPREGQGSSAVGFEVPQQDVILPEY
Assay [12] deals with Dual specificity protein kinase CLK4 (Homo sapiens) (UniProt Q9HAZ1). The assay is described as follows: Inhibition of tracer 236 binding to recombinant human GST-tagged full length CLK4 expressed in baculovirus expression system at 10 uM incubated for 60 mins by Lanthascreen assay relative to control.
Dual specificity protein kinase CLK4 (Homo sapiens), sequence (Q9HAZ1 whole entry, looked up, canonical isoform): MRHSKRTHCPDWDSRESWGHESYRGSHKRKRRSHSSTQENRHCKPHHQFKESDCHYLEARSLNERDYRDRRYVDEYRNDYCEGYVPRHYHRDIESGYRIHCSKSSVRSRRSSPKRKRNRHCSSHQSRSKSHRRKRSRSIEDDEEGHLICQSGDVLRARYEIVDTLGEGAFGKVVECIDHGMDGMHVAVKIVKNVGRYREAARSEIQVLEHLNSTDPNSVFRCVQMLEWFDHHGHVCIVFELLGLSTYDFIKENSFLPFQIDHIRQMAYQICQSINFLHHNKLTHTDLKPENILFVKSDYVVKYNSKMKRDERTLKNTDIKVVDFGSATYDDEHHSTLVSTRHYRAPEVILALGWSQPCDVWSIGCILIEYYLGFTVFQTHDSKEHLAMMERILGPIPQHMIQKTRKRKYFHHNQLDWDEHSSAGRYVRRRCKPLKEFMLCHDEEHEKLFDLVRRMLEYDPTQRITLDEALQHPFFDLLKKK
The target in assay [13] is Casein kinase I isoform epsilon (Homo sapiens) (UniProt P49674). The assay is described as follows: Inhibition of recombinant human His-tagged full length CK1epsilon expressed in baculovirus expression system using Ser/Thr 11 as substrate at 10 uM incubated for 60 mins by Z'-Lyte assay relative to control.
Assay [14] has as its target Insulin receptor-related protein (Homo sapiens) (UniProt P14616). The assay is described as follows: Inhibition of recombinant human GST-tagged IRR (944 to 1297 residues) expressed in baculovirus expression system using Tyr 04 as substrate at 10 uM incubated for 60 mins by Z'-lyte assay relative to control.
The target in assay [15] is Tyrosine-protein kinase Fes/Fps (Homo sapiens) (UniProt P07332). The assay is described as follows: Inhibition of recombinant human His-tagged full length FES expressed in baculovirus expression system using Tyr 01 as substrate at 10 uM incubated for 60 mins by Z'-Lyte assay relative to control.
For assay [16], the target named is High affinity nerve growth factor receptor (Homo sapiens) (UniProt P04629). In words: Inhibition of recombinant human His-tagged TRKA (441 to 796 residues) expressed in baculovirus expression system using Tyr 01 as substrate at 10 uM incubated for 60 mins by Z'-Lyte assay relative to control.
For assay [17], the target named is G protein-coupled receptor kinase 3 (Homo sapiens) (UniProt P35626). The assay is described as follows: Inhibition of recombinant human GST-tagged full length GRK3 expressed in baculovirus expression system using Ser/Thr 16 as substrate at 10 uM incubated for 60 mins by Z'-Lyte assay relative to control.
G protein-coupled receptor kinase 3 (Homo sapiens), sequence (P35626 whole entry): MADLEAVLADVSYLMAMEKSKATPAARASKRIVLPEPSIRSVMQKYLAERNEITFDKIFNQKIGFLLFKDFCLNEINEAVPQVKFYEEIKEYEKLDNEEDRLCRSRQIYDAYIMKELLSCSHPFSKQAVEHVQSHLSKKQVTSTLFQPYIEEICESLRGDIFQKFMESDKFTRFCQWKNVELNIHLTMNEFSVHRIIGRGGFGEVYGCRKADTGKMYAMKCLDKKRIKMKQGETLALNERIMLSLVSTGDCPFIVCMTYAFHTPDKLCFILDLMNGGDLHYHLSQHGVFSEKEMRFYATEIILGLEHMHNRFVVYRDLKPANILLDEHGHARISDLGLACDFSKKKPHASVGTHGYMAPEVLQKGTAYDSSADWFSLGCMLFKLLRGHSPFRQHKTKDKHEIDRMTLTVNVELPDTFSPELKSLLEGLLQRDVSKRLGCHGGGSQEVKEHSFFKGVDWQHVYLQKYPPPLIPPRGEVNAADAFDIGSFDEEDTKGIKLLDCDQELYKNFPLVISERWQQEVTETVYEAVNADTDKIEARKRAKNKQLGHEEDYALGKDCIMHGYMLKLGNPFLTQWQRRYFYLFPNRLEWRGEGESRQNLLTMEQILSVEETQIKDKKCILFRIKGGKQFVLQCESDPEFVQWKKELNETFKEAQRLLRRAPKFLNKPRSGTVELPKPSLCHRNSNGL
The target of assay [18] is G protein-coupled receptor kinase 6 (Homo sapiens) (UniProt P43250). In words: Inhibition of recombinant human GST-tagged full length GRK6 expressed in baculovirus expression system using Ser/Thr 16 as substrate at 10 uM incubated for 60 mins by Z'-Lyte assay relative to control.
G protein-coupled receptor kinase 6 (Homo sapiens), sequence (P43250 whole entry, looked up): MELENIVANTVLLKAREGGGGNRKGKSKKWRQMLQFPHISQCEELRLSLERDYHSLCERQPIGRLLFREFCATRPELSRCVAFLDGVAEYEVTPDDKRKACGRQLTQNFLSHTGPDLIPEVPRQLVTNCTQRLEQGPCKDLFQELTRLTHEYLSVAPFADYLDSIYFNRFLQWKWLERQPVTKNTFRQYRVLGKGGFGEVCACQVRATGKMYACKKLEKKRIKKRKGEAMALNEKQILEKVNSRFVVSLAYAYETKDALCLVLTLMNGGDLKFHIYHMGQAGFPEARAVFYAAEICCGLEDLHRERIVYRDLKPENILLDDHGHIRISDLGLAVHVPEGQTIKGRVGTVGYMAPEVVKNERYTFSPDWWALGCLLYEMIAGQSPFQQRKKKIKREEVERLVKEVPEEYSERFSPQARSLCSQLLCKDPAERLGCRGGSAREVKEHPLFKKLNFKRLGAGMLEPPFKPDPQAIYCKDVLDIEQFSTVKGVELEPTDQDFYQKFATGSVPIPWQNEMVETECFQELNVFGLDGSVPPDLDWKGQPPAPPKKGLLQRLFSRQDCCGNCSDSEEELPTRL
Assay [19] concerns the target DNA-dependent protein kinase catalytic subunit (Homo sapiens) (UniProt P78527). The assay is described as follows: Inhibition of recombinant human untagged full length DNA-PK expressed in baculovirus expression system using Ser/Thr 26 as substrate at 10 uM incubated for 60 mins by Z'-Lyte assay relative to control.
For assay [20], the target named is Protein kinase C alpha type (Homo sapiens) (UniProt P17252). The assay is described as follows: Inhibition of recombinant human His-tagged full length PKCalpha expressed in Escherichia coli expression system using Ser/Thr 07 as substrate at 10 uM incubated for 60 mins by Z'-lyte assay relative to control.
Assay [21] addresses Serine/threonine-protein kinase PLK1 (Homo sapiens) (UniProt P53350). In words: Inhibition of recombinant human His-tagged full length PLK1 expressed in baculovirus expression system using Ser/Thr 16 as substrate at 10 uM incubated for 60 mins by Z'-lyte assay relative to control.
The target in assay [22] is Tyrosine-protein kinase CSK (Homo sapiens) (UniProt P41240). In words: Inhibition of recombinant human GST-tagged full length CSK expressed in Escherichia coli expression system using Tyr 02 as substrate at 10 uM incubated for 60 mins by Z'-Lyte assay relative to control.
The target in assay [23] is NUAK family SNF1-like kinase 1 (Homo sapiens) (UniProt O60285). In words: Inhibition of recombinant human His-tagged full length ARK5 expressed in baculovirus expression system using CHKtide as substrate at 10 uM incubated for 60 mins by Adapta assay relative to control.
For assay [24], the target named is Tyrosine-protein kinase ABL1 (Homo sapiens) (UniProt P00519). In words: Inhibition of recombinant human His-tagged full length Abl expressed in baculovirus expression system using Tyr 02 as substrate at 10 uM incubated for 60 mins by Z'-Lyte assay relative to control.

STE20-like serine/threonine-protein kinase (Homo sapiens), sequence (Q9H2G2 whole entry, looked up): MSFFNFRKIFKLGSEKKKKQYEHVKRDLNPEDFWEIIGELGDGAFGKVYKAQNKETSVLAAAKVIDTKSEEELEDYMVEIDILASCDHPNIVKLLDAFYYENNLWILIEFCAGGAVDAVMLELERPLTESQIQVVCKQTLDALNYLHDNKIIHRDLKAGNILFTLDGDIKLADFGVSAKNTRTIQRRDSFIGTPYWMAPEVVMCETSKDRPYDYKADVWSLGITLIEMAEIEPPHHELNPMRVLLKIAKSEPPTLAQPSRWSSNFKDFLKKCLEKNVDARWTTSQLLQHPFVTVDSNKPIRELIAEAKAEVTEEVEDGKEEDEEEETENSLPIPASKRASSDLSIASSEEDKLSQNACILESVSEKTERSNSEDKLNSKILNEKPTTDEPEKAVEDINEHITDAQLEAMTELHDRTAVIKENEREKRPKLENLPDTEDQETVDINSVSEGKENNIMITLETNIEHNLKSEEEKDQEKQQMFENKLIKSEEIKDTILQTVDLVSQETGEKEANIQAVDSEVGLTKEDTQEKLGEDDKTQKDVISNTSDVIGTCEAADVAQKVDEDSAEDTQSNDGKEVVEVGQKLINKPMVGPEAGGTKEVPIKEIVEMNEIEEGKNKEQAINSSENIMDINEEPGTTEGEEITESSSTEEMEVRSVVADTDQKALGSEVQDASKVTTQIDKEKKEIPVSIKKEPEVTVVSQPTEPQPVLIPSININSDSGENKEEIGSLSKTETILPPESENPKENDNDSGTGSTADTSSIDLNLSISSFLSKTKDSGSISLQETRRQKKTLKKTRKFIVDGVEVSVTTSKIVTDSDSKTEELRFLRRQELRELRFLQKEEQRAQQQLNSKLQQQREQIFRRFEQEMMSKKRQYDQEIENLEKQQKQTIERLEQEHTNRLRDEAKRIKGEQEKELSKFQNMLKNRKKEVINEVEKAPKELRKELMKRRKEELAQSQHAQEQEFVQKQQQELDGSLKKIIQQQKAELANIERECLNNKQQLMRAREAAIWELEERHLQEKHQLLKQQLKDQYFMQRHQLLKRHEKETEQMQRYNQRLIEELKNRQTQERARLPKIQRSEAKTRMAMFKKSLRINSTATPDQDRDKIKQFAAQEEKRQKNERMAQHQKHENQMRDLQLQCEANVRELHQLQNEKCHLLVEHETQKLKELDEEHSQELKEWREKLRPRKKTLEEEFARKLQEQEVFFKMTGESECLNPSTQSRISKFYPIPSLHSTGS

Regarding `CN1C(=O)[C@@H](NC(=O)c2n[nH]c3ncc(C(F)(F)C(F)(F)F)cc23)COc2ccccc21`, the inhibition came out at 6.5% in assay [1]; 9% in [2]; 2% in assay [3]; 5% in [4]; 3% in [5]; 9% in assay [6]. Besides, the inhibition is 17% in [7]; 5% in assay [8]; -6% in [9]; 0.5% in assay [10]; -2% in assay [11]; 18% in [12]. For the same compound, the inhibition in [13] is 5%; in assay [14], 6.5%; in assay [15], 5.5%; in assay [16] it was 3%; in assay [17] it was 2.5%; in assay [18], -0.5%. The inhibition is 4.5% in assay [19]; -9.5% in assay [20]; 2.5% in assay [21]; 2.5% in assay [22]; 8.5% in [23]; 5% in [24].

In general, inhibition refers to the relative decrease from the control value, in per cent.
